Like-named read-outs stand apart in the source and are kept apart here.
Tests used:
[1] = test system: Gaeumannomyces graminis var. tritici (Ggt); experiment: In vitro Assay: mycelial growth of Ggt on minimal media agar plates containing test compound; assay type: cell-based; conditions: Gaeumannomyces graminis, dark, 19-20° C., 4 to 5 days, diameter of mycelial growth; for inhibition at 0.1 ppm: 0.1 ppm in minimal media agar, read-out: In vitro (ppm) 0.1, Percent Inhibition; for inhibition at 1 ppm: 1 ppm in minimal media agar, read-out: In vitro (ppm) 1, Percent Inhibition; for inhibition at 10 ppm: 10 ppm in minimal media agar, read-out: In vitro (ppm) 10, Percent Inhibition
Outline: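 Compounds added from acetone stock into minimal (Czapek Dox) agar; plates inoculated with three 4-mm Ggt plugs, incubated in dark at 19-20° C for 4 to 5 days. Colony diameter measured; Percent Inhibition = [1-((treated mm −4)/(control mm −4))]×100.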

[2] = test system: Ggt; experiment: In vivo Assay: control of Ggt on wheat grown in pots of Ggt-infested soil, root disease rating; design: species or system Gaeumannomyces graminis var. tritici; conditions: Gaeumannomyces graminis, 672 h, read-out: In vivo, percent disease control
Experimental: Compounds are tested for control of Ggt on ‘Bergen’ or ‘Anza’ varieties of wheat grown in 3-inch square pots containing soil infested with Ggt. The infestation is accomplished by mixing the soil with an inoculum prepared by growing Ggt on ¼ strength potato dextrose agar (4.875 g potato dextrose agar, 5.0 g Bacto agar, 500 mL distilled, deionized water) in plates and using plugs from the plates to infest sterile oats (400 cc whole oats, 350 mL deionized water, autoclaved). After a one-month incubation period at room temperature, the oats are dried and mixed with the soil at 4% v/v. Four wheat seeds are placed on top of the soil in each pot. The test compounds are prepared as an 1:9 acetone/water v/v solution containing 0.18% Tween® 20 to provide a treatment rate of 0.5 mg active ingredient per pot, treated with 3 mL test solution per pot. Five pots are used for each treatment level and the controls, which are untreated, inoculated and non-inoculated pots. After one hour drying time, the seeds are covered with more of the appropriate soil and a layer of vermiculite. The pots are placed in a growth chamber and watered each day. After four weeks, each pot is evaluated for evidence of disease by examination of the seminal roots of each plant under a dissecting microscope. A 0 to 5 rating scale having the following meanings is used:
0=no runner hyphae or lesions present
1=runner hyphae and a few small lesions present on <10% of root system
2=runner hyphae and small lesions present on 10-25% of root system
3=runner hyphae and lesions present on 25-50% of root system
4=runner hyphae and many, large, coalescing lesions on >50% of root system
5=root system and culm completely inundated with lesions and runner hyphae
From each set of five replicates a high and low score is eliminated and a replicate mean is calculated by the average of the remaining three scores. This mean score is then compared to the untreated control score and a percent disease control is calculated.

[3] = 0.5 mg active ingredient per pot, 'Bergen' or 'Anza' wheat in Ggt-infested soil, after four weeks, vs untreated control

Row | Structure (SMILES) | inhibition at 0.1 ppm [1] [%] | inhibition at 1 ppm [1] [%] | inhibition at 10 ppm [1] [%] | pest or weed control at 0.5 mg/pot [2, 3] [%] | pest or weed control at 0.5 mg/pot ([2]; soil) [%]
1 | CCNC(=O)c1c(Cl)cccc1[Si](C)(C)C [Example 45, 2-Chloro-N-ethyl-6-(trimethylsilyl)benzamide] | 100 | 100 | 100 | 97 | –
2 | C=CCNC(=O)c1c(Cl)cccc1[Si](C)(C)C [Example 106, 2-Chloro-N-2-propenyl-6-(trimethylsilyl)benzamide] | 95 | 95 | 97 | 100 | –
3 | CCC(C)NC(=O)c1c(Cl)cccc1[Si](C)(C)C (stereo not shown) [Example 28, 2-Chloro-N-(1-methylpropyl)-6-(trimethylsilyl)benzamide] | 60 | 100 | 100 | 86 | –
4 | C[Si](C)(C)c1cccc(Cl)c1C(=O)NCC1CC1 [Example 150, 2-Chloro-N-(cyclopropylmethyl)-6-(trimethylsilyl)benzamide] | 34 | 74 | 83 | 96 | –
5 | CCN(CC)C(=O)c1c(C(F)(F)F)ccc(C(F)(F)F)c1[Si](C)(C)C [Example 62, N,N-Diethyl-2-(trimethylsilyl)-3,6-bis(trifluoromethyl)benzamide] | 8 | 3 | 69 | 9 | –
6 | C[Si](C)(C)c1cccc(Cl)c1C(=O)NCc1ccco1 [Example 32, 2-Chloro-N-(2-furylmethyl)-6-(trimethylsilyl)benzamide] | 75 | 100 | 100 | 85 | –
7 | CCN(CC)C(=O)c1c([Si](C)(C)C)ccc(C)c1Cl [Example 65, N,N-Diethyl-2-chloro-3-methyl-6-(trimethylsilyl)benzamide] | 39 | 56 | 100 | 95 | –
8 | CCNC(=O)c1c(Cl)cccc1[Si](C)(C)CBr [Example 210, 2-[(Bromomethyl)dimethylsilyl]-6-chloro-N-ethyl-benzamide] | 85 | 88 | 94 | 74 | –
9 | CCNC(=O)c1c([Si](C)(C)C)ccc(Cl)c1F [Example 218, 3-Chloro-N-ethyl-2-fluoro-6-(trimethylsilyl)benzamide] | 18 | 94 | 100 | 99 | –
10 | CCNC(=O)c1c([Si](C)(C)C)sc(C)c1C [Example 271, 4,5-Dimethyl-N-ethyl-2-(trimethylsilyl)-3-thiophenecarboxamide] | 95 | 100 | 100 | 97 | –
11 | CC(C)(C)OC(=O)Nc1c(Cl)cccc1[Si](C)(C)C [Example 111, [2-Chloro-6-(trimethylsilyl)phenyl]carbamic acid, 1,1-dimethylethyl ester] | 14 | 66 | 100 | – | 48
12 | CNC(=O)c1c(Cl)cccc1[Si](C)(C)C [Example 19, 2-Chloro-N-methyl-6-(trimethylsilyl)-benzamide] | < 0 | 7 | 29 | 38 | –
13 | CCSC(=O)c1c(Cl)cccc1[Si](C)(C)C [Example 77, 2-Chloro-6-(trimethylsilyl)benzenecarbothioic acid, S-ethyl ester] | 13 | 47 | 100 | < 0 | –
14 | CCN(CC)C(=O)c1c(CO)ccc(F)c1[Si](C)(C)C [Example 54, N,N-Diethyl-3-fluoro-6-(hydroxymethyl)-2-(trimethylsilyl)benzamide] | < 0 | 2 | 43 | 52 | –
15 | CCCN(CCC)C(=O)c1c(Cl)cccc1[Si](C)(C)C [Example 36, 2-Chloro-N,N-dipropyl-6-(trimethylsilyl)benzamide] | 26 | 69 | 100 | 88 | –
16 | C[Si](C)(C)c1cccc(Cl)c1C(=O)NCCCl [Example 29, 2-Chloro-N-(2-chloroethyl)-6-(trimethylsilyl)benzamide] | 100 | 100 | 100 | 97 | –
17 | CCNC(=O)c1c(C(F)(F)F)cccc1[Si](C)(C)C [Example 82, N-Ethyl-2-(trifluoromethyl)-6-(trimethylsilyl)benzamide] | 30 | < 0 | 57 | 58 | –
18 | COc1ccccc1NC(=O)c1c(Cl)cccc1[Si](C)(C)C [Example 159, 2-Chloro-N-(2-methoxyphenyl)-6-(trimethylsilyl)benzamide] | 12 | 55 | 100 | 0 | –
19 | CCOc1ccccc1NC(=O)c1c(Cl)cccc1[Si](C)(C)C [Example 157, 2-Chloro-N-(2-ethoxyphenyl)-6-(trimethylsilyl)benzamide] | 7 | 23 | 91 | 0 | –
20 | CCNC(=O)c1c(C)cccc1[Si](C)(C)C [Example 48, N-Ethyl-2-methyl-6-(trimethylsilyl)benzamide] | 74 | 100 | 100 | 97 | –
21 | Cc1ccccc1NC(=O)c1c(Cl)cccc1[Si](C)(C)C [Example 33, 2-Chloro-N-(2-methylphenyl)-6-(trimethylsilyl)benzamide] | < 0 | 44 | 100 | 12 | –
22 | CCN(CC)C(=S)c1c(C)cccc1[Si](C)(C)C [Example 51, N,N-Diethyl-2-methyl-6-(trimethylsilyl)thiobenzamide] | < 0 | 19 | 100 | 77 | –
23 | CCNC(=O)c1sc([Si](C)(C)C)cc1[Si](C)(C)C [Example 249, N-Ethyl-3,5-bis(trimethylsilyl)-2-thiophenecarboxamide] | 17 | 48 | 100 | 60 | –
24 | CCN(CC)C(=O)c1c(C)cccc1C(C)(C)C [Example 6, 2-(1,1-Dimethylethyl)-N,N-diethyl-6-methylbenzamide] | 7 | 2 | 47 | 37 | –
25 | CCNC(=O)c1c(Cl)ccc([N+](=O)[O-])c1[Si](C)(C)C [Example 215, 6-Chloro-N-ethyl-3-nitro-2-(trimethylsilyl)benzamide] | 46 | 96 | 100 | 57 | –
26 | CCN(CC)C(=O)c1ccccc1[Si](C)(C)C [Example 2, N,N-Diethyl-2-(trimethylsilyl)benzamide] | 14 | 36 | 72 | 74 | –
27 | CCCCNC(=O)c1c(Cl)cccc1[Si](C)(C)C [Example 20, N-Butyl-2-chloro-6-(trimethylsilyl)-benzamide] | 7 | 14 | 61 | 36 | –
28 | CCN(CC)C(=O)c1c(C(F)(F)F)cccc1[Si](C)(C)C [Example 61, N,N-Diethyl-2-(trimethylsilyl)-6-(trifluoromethyl)benzamide] | 9 | 29 | 49 | 1 | –

From patent US6410558B1, “Fungicides for the control of take-all disease of plants” (Monsanto Technology LLC, priority 1991, dated 2002)
